Measured values published in patent US8178699B2, “Modulators of CCR9 receptor and methods of use thereof” (Pfizer Inc., priority 2008, dated 2012).
Counter-ions that a name gives are not always drawn.

Molecular target: T1, human CCR9 receptor (Homo sapiens, UniProt P51686)
T1 construct: expressed in transfected cells
T1 sequence (P51686 1-369): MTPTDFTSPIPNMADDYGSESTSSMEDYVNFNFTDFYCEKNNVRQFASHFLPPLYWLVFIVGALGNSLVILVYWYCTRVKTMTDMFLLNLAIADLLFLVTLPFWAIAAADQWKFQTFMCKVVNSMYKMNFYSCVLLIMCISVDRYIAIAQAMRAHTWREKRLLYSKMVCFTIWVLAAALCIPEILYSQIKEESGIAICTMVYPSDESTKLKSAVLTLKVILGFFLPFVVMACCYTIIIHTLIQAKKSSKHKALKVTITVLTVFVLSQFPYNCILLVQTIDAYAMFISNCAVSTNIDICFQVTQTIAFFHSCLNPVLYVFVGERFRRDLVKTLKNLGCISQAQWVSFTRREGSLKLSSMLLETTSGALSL
Test: CCR9 FLIPR/FlexStation Assay (inhibition of TECK induced calcium mobilization)
Format: cell-based
Conditions: CCR9 antagonist activity; TECK induced calcium mobilization in CCR9-Flp-CHO cells stably over expressing human CCR9; rhTECK at EC70; read-out: Binding IC50
From the text: Exemplary methods are described in US Publication Nos. US2004/0180892 and US2005/0049286, which are incorporated herein by reference. An exemplary assay for determining CCR9 antagonist activity of the compounds provided herein is CCR9 FLIPR/FlexStation Assay. In certain embodiments, the following protocol is used for the assay:
CCR9 FLIPR/FlexStation Assay Protocol
Calcium assay in FLIPR/FlexStation determines inhibitors of TECK induced calcium mobilization in CCR9-Flp-CHO cells that stably over express human CCR9 receptor. CCR9-Flp-CHO cells are seeded at 25,000 cells/well in a clear bottom, black wall 96-well plate (Greiner #655090) one day prior to assay. Cells are grown in a tissue culture incubator at 37° C. with 5% CO2 for 18 to 24 hours.
Wash buffer and dye loading buffer are prepared fresh each time the assay is performed. Wash buffer is prepared according to the following protocol: 20 ml 10×HBSS (Invitrogen Gibco #14065-056), 4 ml 1M HEPES (Sigma H3784), 174 ml sterile deionized water; then add 140 mg probenecid (Sigma P8761) dissolved in 2 ml 1M NaOH (Fisher S318) to solution and pH to 7.4. This wash buffer contains 1×HBSS, 20 mM HEPES and 2.5 mM probenecid. For one 96-well plate, dye loading buffer is prepared as following: 11 ml wash buffer, 44 μl Fluo-4/pluoronic acid mix (prepared from 22 μL aliquot of 2 mM Fluo-4 (Molecular Probes F14202, 1 mg/tube)+22 μl 20% pluronic F-127 (Molecular Probes P3000MP).
Cells are loaded with dye according to the protocol below:
1. Prepare wash buffer with 1×HBSS/HEPES at room temperature
2. Prepare loading buffer (keep in dark)
3. Aspirate culture media and wash with 100 μl wash buffer per well×1
4. Add 100 μl dye loading buffer to each well
5. Incubate at 37° C. for 30 minutes
6. Aspirate loading buffer
7. Wash with 100 μl wash buffer per well×3
8. Add 100 μl wash buffer per well
9. Incubate at 37° C. for 30 minutes
10. Assay plate with FLIPR or FlexStation
10 mM stock compounds in DMSO are prepared and diluted in DMSO to 1 mM. Compounds are diluted in wash buffer to make 8 point series dilutions containing same final concentration of DMSO (1%). Compounds are tested in duplicate wells for each point. Ligand rhTECK (R&D Systems 334-TK) was diluted to 6× of its EC70 with wash buffer. Appropriate amount of 6× ligand is added to each well. Data is analyzed using XLfit3 software to calculate IC50 value of antagonist activity for each compound.
CCR9 antagonist activity of exemplary compounds was determined using CCR9 FLIPR/FlexStation Assay as described in Section 4.4 and is provided in Table 1 below. The IC50 for the compounds are represented as follows: A≦100 nM; B>100-500 nM; C>500 nM.

Row | IC50 [nM] | SMILES
1 | 100 to 500 | O=C(O)c1sccc1NS(=O)(=O)c1ccc2c(c1)CCCC2 [Example 21, 3-(5,6,7,8-tetrahydronaphthalene-2-sulfonamido)thiophene-2-carboxylic acid, disodium salt]
2 | ≤ 100 | CC(C)(C)c1ccc(S(=O)(=O)Nc2ccsc2C(=O)O)c(Cl)c1 [Example 6, 3-(4-tert-Butyl-2-chlorophenylsulfonamido)thiophene-2-carboxylic acid, disodium salt]
